Measured values: patent US20240317756A1, “INHIBITORS OF BRUTON'S TYROSINE KINASE” (Pharmacyclics LLC, priority 2006, published 2024)

What was measured:
BTK = BTK (Homo sapiens (Human), UniProt Q06187); assay: in vitro HotSpot kinase assay, BTK; assay type: biochemical; settings: Table 2, 1 uM ATP, one hour incubation with inhibitor
EGFR = EGFR (Homo sapiens (Human), UniProt P00533); assay: in vitro HotSpot kinase assay, EGFR; assay type: biochemical; settings: Table 2, 1 uM ATP, one hour incubation with inhibitor
Sequence of EGFR (P00533 25-1210, species assumed): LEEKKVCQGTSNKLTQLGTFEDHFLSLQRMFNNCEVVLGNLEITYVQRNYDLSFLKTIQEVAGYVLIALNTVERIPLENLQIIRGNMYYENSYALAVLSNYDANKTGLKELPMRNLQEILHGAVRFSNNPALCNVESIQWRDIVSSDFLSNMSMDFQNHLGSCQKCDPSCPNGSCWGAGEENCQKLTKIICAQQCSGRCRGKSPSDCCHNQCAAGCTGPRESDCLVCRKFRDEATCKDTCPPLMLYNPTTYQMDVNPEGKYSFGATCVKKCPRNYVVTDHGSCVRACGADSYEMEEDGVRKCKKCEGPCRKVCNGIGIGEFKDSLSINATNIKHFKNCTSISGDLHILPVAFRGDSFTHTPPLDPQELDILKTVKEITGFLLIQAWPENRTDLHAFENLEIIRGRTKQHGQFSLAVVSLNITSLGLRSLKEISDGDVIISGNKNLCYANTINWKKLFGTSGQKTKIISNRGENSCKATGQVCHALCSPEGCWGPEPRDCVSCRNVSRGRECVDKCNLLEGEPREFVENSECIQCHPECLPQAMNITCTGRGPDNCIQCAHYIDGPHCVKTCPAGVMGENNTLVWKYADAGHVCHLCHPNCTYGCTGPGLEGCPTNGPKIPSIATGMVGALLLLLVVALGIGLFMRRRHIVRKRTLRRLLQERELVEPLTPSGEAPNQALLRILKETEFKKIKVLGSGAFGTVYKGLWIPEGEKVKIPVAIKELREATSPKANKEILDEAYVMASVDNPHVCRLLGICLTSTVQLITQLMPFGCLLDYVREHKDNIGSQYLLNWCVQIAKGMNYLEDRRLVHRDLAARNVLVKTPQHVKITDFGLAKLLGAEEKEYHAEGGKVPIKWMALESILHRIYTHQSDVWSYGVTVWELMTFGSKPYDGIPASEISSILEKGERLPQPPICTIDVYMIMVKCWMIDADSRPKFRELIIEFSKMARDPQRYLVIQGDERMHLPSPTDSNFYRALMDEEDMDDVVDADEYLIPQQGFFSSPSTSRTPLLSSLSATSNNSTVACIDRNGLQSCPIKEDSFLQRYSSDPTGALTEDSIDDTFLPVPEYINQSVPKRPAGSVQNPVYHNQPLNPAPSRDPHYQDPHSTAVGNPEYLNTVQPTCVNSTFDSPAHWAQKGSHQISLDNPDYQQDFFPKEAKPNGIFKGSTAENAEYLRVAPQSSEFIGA

lymphoma cell line DOHH2 = assay: DOHH2 cell proliferation assay (Alamar Blue); assay type: cell-based
Description: After 72 hours, cell number was measured using Alamar Blue using manufacturer's protocol. A dilution series of untreated cells was run in parallel to verify that the Alamar Blue assay reliably reflected cell number and that growth conditions were not limiting. […] GI50 values were confirmed in two or more separate experiments for each cell line.
Analogs are generated that are Btk inhibitors and that are cytotoxic to the lymphoma cell line DOHH2. For the DOHH2 cell proliferation assay, cells were seeded in 96-well plates in standard growth media (RPMI+10% fetal calf serum) and compounds were added in a 9-point dilution series ranging from 10 uM to 0.04 uM with DMSO at 0.1% final concentration in all wells. After 72 hours, cell number was measured using Alamar Blue using manufacturer's protocol. A dilution series of untreated cells was run in parallel to verify that the Alamar Blue assay reliably reflected cell number and that growth conditions were not limiting.

[1] = tested on: Tec family kinases, including Btk, and Src family kinases; assay: in vitro profiling against a panel of greater than 100 kinases; assay type: biochemical
Excerpt: By way of example only and in some embodiments, the observed potency, selectivity, and cell permeability of compounds such as Compound 2 are appropriate to incorporate these molecules into a Kinase-targeted, activity based probe that allows direct visualization of Kinase activity in intact cells. […] Without limiting the scope of the compositions and methods described herein, it is postulated that the structural basis for the selectivity is covalent modification of a non-catalytic cysteine residue (Cys 481 in Btk) that is conserved in the ATP binding pocket of the Tec family and several other kinases.

[2] = tested on: pERK and BCR pathway phosphorylation in DOHH2 cells; assay: BCR signal transduction pathway phosphorylation, DOHH2; assay type: cell-based; settings: unstimulated DOHH2 cells; read-out: IC50 for decrease of pERK levels
Excerpt: To identify biomarkers that correlate with response to Compound 1, phosphorylation events in the BCR signal transduction pathway were investigated.
However, when we examined basal phosphorylation levels, we found higher basal phosphorylation in DOHH2 compared to Ramos, with phospho-ERK in particular indicating higher levels of basal or tonic signaling in DOHH2.

[3] = tested on: lymphoma cell line WSU-DLCL2; assay: BCR cross-linking by anti-IgG in WSU-DLCL2; assay type: cell-based; settings: WSU-DLCL2, anti-IgG 30 ug/ml
Egr-1 = assay: expression of ERK transcriptional target Egr-1; assay type: cell-based; settings: 1 uM
[4] = glutathione binding assay; settings: 5 mM glutathione, 10 μM Btk inhibitor, room temperature, HPLC
Description: A calculated value (e.g (1/Btk IC50)/Glutathione conjugation rate) as shown in the Table 2) is used to compare compounds for their ratio between potency at inhibiting their target and their non-specific binding to other SH groups, such as those in glutathione. […] Calculated ratios such as these are used to quantitatively compare different compounds and select compounds for further study.
For the glutathione binding assays, 5 mM glutathione, 10 μM Btk inhibitor in DMSO (10 μL) and 6 equivalents of N′N′ Diisopropyl ethyl amine were combined in 1 mL potassium phosphate buffer. The mixture was incubated for 0, 15, 60 minutes at room temperature and the reaction was stopped with 10 equivalents of formic acid. 50 μL of each reaction mixture was injected on HPLC (Mobil Phase A: 0.2% formic acid in water, Mobile Phase B: 0.2% formic acid in acetonitrile, HPLC Column: Metasil Basic 3μ, 150×4.6 mm, 10% B, Gradient: 10% to 90% B, Detection: UV/Vis […]). Rate of reaction was reported as nmole GSH conjugate conversion per minute from the normalized ratio for area under the curve from HPLC chromatograms for both GSH conjugate and the parent.

ITK = ITK (Homo sapiens (Human), UniProt Q08881); assay: in vitro HotSpot kinase assay, ITK; assay type: biochemical; settings: Table 2, 1 uM ATP, one hour incubation with inhibitor
Sequence of ITK (Q08881 whole entry, species assumed): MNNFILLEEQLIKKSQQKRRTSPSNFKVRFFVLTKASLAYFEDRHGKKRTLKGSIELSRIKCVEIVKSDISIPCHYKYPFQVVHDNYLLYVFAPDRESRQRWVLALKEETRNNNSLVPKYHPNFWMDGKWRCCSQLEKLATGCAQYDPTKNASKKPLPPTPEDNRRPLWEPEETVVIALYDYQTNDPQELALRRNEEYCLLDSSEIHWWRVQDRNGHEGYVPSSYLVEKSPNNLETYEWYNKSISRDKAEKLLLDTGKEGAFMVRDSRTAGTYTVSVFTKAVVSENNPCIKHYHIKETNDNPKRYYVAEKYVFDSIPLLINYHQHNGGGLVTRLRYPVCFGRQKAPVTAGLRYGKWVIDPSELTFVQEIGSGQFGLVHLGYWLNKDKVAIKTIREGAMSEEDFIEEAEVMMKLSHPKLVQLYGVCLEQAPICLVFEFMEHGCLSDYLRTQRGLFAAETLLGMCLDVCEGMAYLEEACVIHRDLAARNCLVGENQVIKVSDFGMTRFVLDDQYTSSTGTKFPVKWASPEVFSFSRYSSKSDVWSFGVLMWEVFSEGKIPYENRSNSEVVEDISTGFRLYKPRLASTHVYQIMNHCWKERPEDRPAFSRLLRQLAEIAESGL

JAK3 = JAK3 (Homo sapiens (Human), UniProt P52333); assay: in vitro HotSpot kinase assay, JAK3; assay type: biochemical; settings: Table 2, 1 uM ATP, one hour incubation with inhibitor
Sequence of JAK3 (P52333 whole entry, species assumed): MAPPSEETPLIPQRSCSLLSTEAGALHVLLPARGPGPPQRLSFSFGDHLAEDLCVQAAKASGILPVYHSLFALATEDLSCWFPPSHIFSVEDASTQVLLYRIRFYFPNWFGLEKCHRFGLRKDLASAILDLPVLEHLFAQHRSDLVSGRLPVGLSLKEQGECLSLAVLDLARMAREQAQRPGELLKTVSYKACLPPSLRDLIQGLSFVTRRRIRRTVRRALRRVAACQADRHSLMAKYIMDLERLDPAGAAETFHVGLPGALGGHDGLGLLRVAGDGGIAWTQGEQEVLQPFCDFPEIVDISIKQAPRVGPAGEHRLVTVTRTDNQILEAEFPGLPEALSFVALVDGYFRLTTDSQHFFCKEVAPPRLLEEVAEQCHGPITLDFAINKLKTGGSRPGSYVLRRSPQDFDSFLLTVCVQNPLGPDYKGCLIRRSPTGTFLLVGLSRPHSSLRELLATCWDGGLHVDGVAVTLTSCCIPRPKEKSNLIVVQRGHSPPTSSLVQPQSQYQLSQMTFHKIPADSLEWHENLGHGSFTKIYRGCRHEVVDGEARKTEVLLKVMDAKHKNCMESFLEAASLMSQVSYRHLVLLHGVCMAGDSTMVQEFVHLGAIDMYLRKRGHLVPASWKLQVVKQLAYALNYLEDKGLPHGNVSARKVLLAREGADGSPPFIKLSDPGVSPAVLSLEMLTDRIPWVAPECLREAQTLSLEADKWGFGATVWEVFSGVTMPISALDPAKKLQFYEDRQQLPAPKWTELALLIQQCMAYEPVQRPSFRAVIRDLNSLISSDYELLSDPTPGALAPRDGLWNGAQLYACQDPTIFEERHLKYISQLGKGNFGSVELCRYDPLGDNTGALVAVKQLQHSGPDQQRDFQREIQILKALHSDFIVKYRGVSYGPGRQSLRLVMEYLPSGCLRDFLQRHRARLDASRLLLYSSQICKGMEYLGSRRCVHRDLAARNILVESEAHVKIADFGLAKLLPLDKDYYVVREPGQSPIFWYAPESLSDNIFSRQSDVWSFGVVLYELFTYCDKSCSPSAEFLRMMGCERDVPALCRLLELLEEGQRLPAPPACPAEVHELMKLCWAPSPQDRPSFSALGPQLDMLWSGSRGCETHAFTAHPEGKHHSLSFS

[5] = plasma concentrations after oral dosing of rats; assay type: in vivo; settings: single oral dose 8 mg/kg each in combination
Description: Blood samples were collected at 0.0833 (5 minutes), 0.333 (20 minutes), 1, 3, 6, 9, and 24 hours post-dosing from orally dosed rats.
Male jugular vein cannulated rats were administered a single dose of all test compounds at 8 mg/kg each, in combination by oral gavage. Dose volumes were adjusted based on body weight data collected immediately prior to dosing. Blood samples were collected at 0.0833 (5 minutes), 0.333 (20 minutes), 1, 3, 6, 9, and 24 hours post-dosing from orally dosed rats. The samples were collected into plasma separator Microtainer tubes with anticoagulant (lithium heparin). Plasma samples were prepared by centrifugation (5 min at 5000×g), and at least 100 μL were transferred to storage tubes and stored frozen at −80° C. Plasma samples were thawed and 75 uL aliquots were transferred to centrifuge tubes to which 10 μL aliquots of internal standard solution (1 μg/mL) were added. The samples were not diluted with blank plasma prior to further processing. Soluble proteins were precipitated by the addition of 200 μL of acetonitrile, followed by centrifugation (20 min at 16,000×g). The samples were evaporated to dryness and reconstituted in 200 μL of water containing 0.2% formic acid and 10% methanol. All samples were loaded onto an autosampler maintained at 6° C. and evaluated for concentrations of test compounds using LC-MS/MS.

LCK = LCK (Homo sapiens (Human), UniProt P06239); assay: in vitro HotSpot kinase assay, LCK; assay type: biochemical; settings: Table 2, 1 uM ATP, one hour incubation with inhibitor
Sequence of LCK (P06239 whole entry, species assumed): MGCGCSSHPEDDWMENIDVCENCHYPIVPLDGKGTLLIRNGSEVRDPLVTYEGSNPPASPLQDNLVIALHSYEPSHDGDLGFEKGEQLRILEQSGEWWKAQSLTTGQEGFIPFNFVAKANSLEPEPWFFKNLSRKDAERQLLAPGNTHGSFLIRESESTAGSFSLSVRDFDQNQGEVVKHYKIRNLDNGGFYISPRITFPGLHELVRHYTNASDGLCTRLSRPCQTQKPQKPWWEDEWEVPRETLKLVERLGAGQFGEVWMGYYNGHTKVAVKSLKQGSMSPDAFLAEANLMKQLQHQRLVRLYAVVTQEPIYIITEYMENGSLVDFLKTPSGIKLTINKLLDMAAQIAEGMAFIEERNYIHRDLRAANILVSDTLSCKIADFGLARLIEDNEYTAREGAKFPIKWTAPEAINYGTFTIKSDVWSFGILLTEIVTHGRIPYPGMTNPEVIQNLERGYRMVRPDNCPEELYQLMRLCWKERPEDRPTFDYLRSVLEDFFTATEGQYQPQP

[6] = tested on: collagen-induced arthritis; assay: collagen-induced arthritis in the mouse; assay type: in vivo, Male DBA/lOlaHsd mice; settings: 12.5 mg/kg or 50 mg/kg each day of an 11-day period
Description: […]. […] Dexamethasone was included as a positive control. Paw inflammation was scored from 0-5 and averaged across all paws from all animals for each group in the study.
. After paw inflammation was established, animals were randomized and Compound lor vehicle was dosed orally once per day starting at day 1. Paw inflammation was scored from 0-5 and averaged across all paws from all animals for each group in the study. […] Dexamethasone was included as a positive control.

C-src = C-src (Homo sapiens (Human), UniProt P12931); assay: in vitro HotSpot kinase assay, C-src; assay type: biochemical; settings: purified enzymes, 33P-ATP, 1 uM ATP
Excerpt: (§1) Table 1 is a table showing the degree of inhibition of a panel of kinases for two example compounds. […] Thus, subtle modifications in the linker moiety and the Michael acceptor moiety are important for the design of selective ACK inhibitors.

YES = YES (Homo sapiens (Human), UniProt P07947); assay: in vitro HotSpot kinase assay, YES; assay type: biochemical; settings: purified enzymes, 33P-ATP, 1 uM ATP
Sequence of YES (P07947 whole entry, species assumed): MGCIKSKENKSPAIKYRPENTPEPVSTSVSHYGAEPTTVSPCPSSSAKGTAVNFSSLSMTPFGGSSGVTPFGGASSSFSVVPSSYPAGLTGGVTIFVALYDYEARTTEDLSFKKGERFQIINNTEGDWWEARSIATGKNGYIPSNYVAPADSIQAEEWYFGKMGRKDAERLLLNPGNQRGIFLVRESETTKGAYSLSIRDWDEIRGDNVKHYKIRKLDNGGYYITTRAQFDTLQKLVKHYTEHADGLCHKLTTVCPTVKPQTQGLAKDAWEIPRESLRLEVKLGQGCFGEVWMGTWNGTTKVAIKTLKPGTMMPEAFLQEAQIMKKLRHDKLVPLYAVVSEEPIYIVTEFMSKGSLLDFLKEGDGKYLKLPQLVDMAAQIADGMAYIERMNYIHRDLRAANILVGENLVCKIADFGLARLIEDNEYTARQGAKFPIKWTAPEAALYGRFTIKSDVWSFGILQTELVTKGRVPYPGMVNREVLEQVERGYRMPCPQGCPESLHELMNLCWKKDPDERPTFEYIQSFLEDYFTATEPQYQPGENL

TEC = TEC (Homo sapiens (Human), UniProt P42680); assay: in vitro HotSpot kinase assay, TEC; assay type: biochemical; settings: purified enzymes, 33P-ATP, 1 uM ATP
Lyn = Lyn (Homo sapiens (Human), UniProt P07948); assay: in vitro HotSpot kinase assay, Lyn; assay type: biochemical; settings: purified enzymes, 33P-ATP, 1 uM ATP
ABL = ABL (Homo sapiens (Human), UniProt P00519); assay: in vitro HotSpot kinase assay, ABL; assay type: biochemical; settings: purified enzymes, 33P-ATP, 1 uM ATP
CSK = CSK (Homo sapiens (Human), UniProt P41240); assay: in vitro HotSpot kinase assay, CSK; assay type: biochemical; settings: purified enzymes, 33P-ATP, 1 uM ATP
BLK = BLK (Homo sapiens (Human), UniProt P51451); assay: in vitro HotSpot kinase assay, BLK; assay type: biochemical; settings: purified enzymes, 33P-ATP, 1 uM ATP
SYK = SYK (Homo sapiens (Human), UniProt P43405); assay: in vitro HotSpot kinase assay, SYK; assay type: biochemical; settings: purified enzymes, 33P-ATP, 1 uM ATP
Excerpt: as §1

FER = FER (Homo sapiens (Human), UniProt P16591); assay: in vitro HotSpot kinase assay, FER; assay type: biochemical; settings: purified enzymes, 33P-ATP, 1 uM ATP
FGR = FGR (Homo sapiens (Human), UniProt P09769); assay: in vitro HotSpot kinase assay, FGR; assay type: biochemical; settings: purified enzymes, 33P-ATP, 1 uM ATP
Brk = Brk (Homo sapiens (Human), UniProt Q13882); assay: in vitro HotSpot kinase assay, Brk; assay type: biochemical; settings: purified enzymes, 33P-ATP, 1 uM ATP
HER4 = HER4 (Homo sapiens (Human), UniProt Q15303); assay: in vitro HotSpot kinase assay, HER4; assay type: biochemical; settings: purified enzymes, 33P-ATP, 1 uM ATP
Excerpt: as §1

HER2 = HER2 (Homo sapiens (Human), UniProt P04626); assay: in vitro HotSpot kinase assay, HER2; assay type: biochemical; settings: purified enzymes, 33P-ATP, 1 uM ATP
Fyn = Fyn (Homo sapiens (Human), UniProt P06241); assay: in vitro HotSpot kinase assay, Fyn; assay type: biochemical; settings: purified enzymes, 33P-ATP, 1 uM ATP

Sequence of BTK (Q06187 whole entry): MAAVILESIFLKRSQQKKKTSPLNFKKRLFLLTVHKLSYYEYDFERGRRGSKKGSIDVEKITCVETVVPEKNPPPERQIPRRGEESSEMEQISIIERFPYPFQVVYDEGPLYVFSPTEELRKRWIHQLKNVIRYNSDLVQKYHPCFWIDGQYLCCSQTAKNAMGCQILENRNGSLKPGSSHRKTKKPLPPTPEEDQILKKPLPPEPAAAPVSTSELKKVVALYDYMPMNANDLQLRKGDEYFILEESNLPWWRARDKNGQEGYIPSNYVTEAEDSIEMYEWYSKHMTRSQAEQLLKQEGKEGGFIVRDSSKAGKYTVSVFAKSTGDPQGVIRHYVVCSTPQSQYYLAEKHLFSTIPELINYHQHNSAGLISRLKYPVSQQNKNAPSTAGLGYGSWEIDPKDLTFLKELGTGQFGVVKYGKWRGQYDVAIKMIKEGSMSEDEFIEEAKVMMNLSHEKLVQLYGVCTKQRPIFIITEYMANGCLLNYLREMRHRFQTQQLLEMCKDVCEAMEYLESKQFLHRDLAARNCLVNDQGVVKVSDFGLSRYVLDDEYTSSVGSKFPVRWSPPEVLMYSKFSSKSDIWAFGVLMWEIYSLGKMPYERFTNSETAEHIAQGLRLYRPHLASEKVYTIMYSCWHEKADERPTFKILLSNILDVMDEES

IC50 (BTK) [nM]	IC50 (EGFR) [nM]	GI50 (lymphoma cell line DOHH2; 72 hours) [nM]	Glutathione Conj Rate [4] [nmol/min]	IC50 (ITK) [nM]	IC50 (JAK3) [nM]	in vivo half-life [5]	IC50 (LCK) [nM]	SMILES	further results
1.1	48.8	320	–	–	–	–	–	CN(C)C/C=C/C(=O)N1CCC[C@@H](n2nc(-c3ccc(Oc4ccccc4)cc3)c3c(N)ncnc32)C1 [Compound 2]	potency and selectivity in kinase panel [1]: highly potent and selective inhibitor
6.3	269	–	0.01	6120	> 10000	significantly longer in vivo half-life	2.6	CN(C)C/C=C/C(=O)N1CCC(n2nc(-c3ccc(Oc4ccccc4)cc3)c3c(N)ncnc32)CC1 [Compound 7, (E)-1-(4-(4-amino-3-(4-phenoxyphenyl)-1H-pyrazolo[3,4-d]pyrimidin-1-yl)piperidin-1-yl)-4-(dimethylamino)but-2-en-1-one]	GI50 (lymphoma cell line DOHH2; Homo sapiens, DOHH-2, 72 hours): 317 nM
1.4	83.4	–	–	–	–	significantly longer in vivo half-life	–	CN(C)C/C=C/C(=O)N[C@H]1CC[C@@H](n2nc(-c3ccc(Oc4ccccc4)cc3)c3c(N)ncnc32)CC1 [Compound 8, (E)-N-((1s,4s)-4-(4-amino-3-(4-phenoxyphenyl)-1H-pyrazolo[3,4-d]pyrimidin-1-yl)cyclohexyl)-4-(dimethylamino)but-2-enamide]	–
–	–	11	–	–	–	–	–	C=CC(=O)N[C@H]1CC[C@@H](n2nc(-c3ccc(Oc4ccccc4)cc3)c3c(N)ncnc32)CC1 [Compound 9]	paw inflammation [6]: reduced the increase in paw inflammation; IC50 (C-src): 14.3 nM; IC50 (YES): 0.8 nM; IC50 (TEC): 108 nM; IC50 (Lyn): 1.2 nM; IC50 (ABL): 32.3 nM; IC50 (CSK): 2.4 nM; IC50 (BLK): 0.2 nM; IC50 (SYK): > 10000 nM; IC50 (FER): 3350 nM; IC50 (FGR): 0.4 nM; IC50 (Brk): 3.3 nM; IC50 (HER4): 3.2 nM; IC50 (HER2): 1540 nM; IC50 (Fyn): 7.1 nM
1.33	698	> 10000	0.004361	14300	> 10000	short half-life in vivo	5.97	CN(C)C/C=C/C(=O)N1CCC[C@H]1Cn1nc(-c2ccc(Oc3ccccc3)cc2)c2c(N)ncnc21 [Compound 12, (E)-1-((S)-2-((4-amino-3-(4-phenoxyphenyl)-1H-pyrazolo[3,4-d]pyrimidin-1-yl)methyl)pyrolidin-1-yl)-4-(dimethylamino)but-2-en-1-one]	–

SMILES	IC50 (BTK) [nM]	IC50 (EGFR) [nM]	GI50 (lymphoma cell line DOHH2; 72 hours) [nM]	Glutathione Conj Rate [4] [nmol/min]	IC50 (ITK) [nM]	IC50 (JAK3) [nM]	in vivo half-life [5]	IC50 (LCK) [nM]	further results
Nc1ncnc2c1c(-c1ccc(Oc3ccccc3)cc1)nn2[C@@H]1CCCCN1C(=O)/C=C/c1c[nH]cn1 [Compound 4]	22.2	–	–	–	–	–	–	–	IC50 [2]: < 10 nM; inhibition of pERK under BCR cross-linking [3]: overcomes inhibition of pERK; time to reduced Egr-1 expression (Egr-1): ≤ 1 h; maximal downregulation of Egr-1 expression (Egr-1; achieved by 4 hr): 10 fold
